Results published in US12522594B2, “2-heteroaryl-3-oxo-2,3-dihydropyridazine-4-carboxamides for the treatment of cancer” (Deutsches Krebsforschungszentrum, priority 2017, dated 2026).

Assays:
AHR [1] = molecular target: T1, AHR (Homo sapiens, UniProt P35869); test: In vitro assay 1: antagonism in human cell line (transactivation assay, U87 cells prestimulated with kynurenic acid, DRE firefly luciferase reporter); format: cell-based; design: host or cells: U87 glioblastoma cells, stably transfected with DRE firefly luciferase and renilla reporter constructs; settings: 150 uM kynurenic acid, 20 hours, read-out: Assay 1: AHR-luc Hum Antagonism IC50
T1 sequence (P35869 11-848): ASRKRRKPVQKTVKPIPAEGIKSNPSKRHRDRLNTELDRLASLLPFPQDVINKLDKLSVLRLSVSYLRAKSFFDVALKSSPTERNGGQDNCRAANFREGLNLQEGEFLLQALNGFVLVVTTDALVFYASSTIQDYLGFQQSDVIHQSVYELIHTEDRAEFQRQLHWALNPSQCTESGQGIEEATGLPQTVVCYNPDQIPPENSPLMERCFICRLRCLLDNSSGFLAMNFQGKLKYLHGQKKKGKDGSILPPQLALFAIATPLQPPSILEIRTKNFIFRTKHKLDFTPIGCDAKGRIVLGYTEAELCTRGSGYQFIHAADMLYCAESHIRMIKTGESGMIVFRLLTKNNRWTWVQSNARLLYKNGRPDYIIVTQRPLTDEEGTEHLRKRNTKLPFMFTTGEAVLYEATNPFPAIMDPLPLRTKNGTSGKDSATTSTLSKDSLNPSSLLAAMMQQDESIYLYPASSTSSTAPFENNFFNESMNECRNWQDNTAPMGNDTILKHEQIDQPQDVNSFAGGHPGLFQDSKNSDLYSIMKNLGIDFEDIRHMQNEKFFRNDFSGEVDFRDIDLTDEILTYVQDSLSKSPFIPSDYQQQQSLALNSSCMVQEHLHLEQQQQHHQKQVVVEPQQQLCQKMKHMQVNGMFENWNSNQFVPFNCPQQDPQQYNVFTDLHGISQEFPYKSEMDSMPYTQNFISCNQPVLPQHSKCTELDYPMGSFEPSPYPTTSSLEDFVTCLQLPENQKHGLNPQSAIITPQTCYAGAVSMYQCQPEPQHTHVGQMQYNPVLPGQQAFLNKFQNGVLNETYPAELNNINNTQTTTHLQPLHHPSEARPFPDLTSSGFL
Outline: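 Antagonism measured after kynurenic acid prestimulation in U87 cells that express AHR endogenously and stably harbor a firefly luciferase gene under DRE control plus a constitutive renilla construct. Positive and negative controls served for normalization.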

AHR [2] = molecular target: T1, AHR; test: In vitro assay 2: agonism in human cell line (transactivation assay, U87 cells, DRE firefly luciferase reporter); format: cell-based; design: host or cells: U87 glioblastoma cells, stably transfected with DRE firefly luciferase and renilla reporter constructs; settings: no kynurenic acid, 20 hours, read-out: Assay 2: AHR-luc Hum Agonism IC50
Outline: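 Agonist readout: DRE firefly luciferase, with constitutive renilla reporter, in stably transfected U87 cells expressing AHR endogenously. Normalization used positive control (300 uM kynurenic acid) and negative control.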

Structure (SMILES) | IC50 (AHR [1]) [nM] | IC50 (AHR [2]) [nM]
C[C@H](NC(=O)c1cc(-c2ccc(C(F)(F)F)cc2)nn(-c2cnn(C)c2)c1=O)C(C)(C)O [Example 206, N-[(2S)-3-Hydroxy-3-methylbutan-2-yl]-2-(1-methyl-1H-pyrazol-4-yl)-3-oxo-6-[4-(trifluoromethyl)phenyl]-2,3-dihydropyridazine-4-carboxamide] | 1.07 | > 20000
Cn1cc(-n2nc(-c3ccc(OC(F)(F)F)cc3)cc(C(=O)NCC(C)(C)O)c2=O)cn1 [Example 59, N-(2-Hydroxy-2-methylpropyl)-2-(1-methyl-1H-pyrazol-4-yl)-3-oxo-6-[4-(trifluoromethoxy)phenyl]-2,3-dihydropyridazine-4-carboxamide] | 20 | > 20000
O=C(N[C@@H]1CC[C@@H]1O)c1cc(-c2ccc(Cl)cc2)nn(-c2cccnc2)c1=O (single isomer, unassigned) [Example 281, (−)-6-(4-Chlorophenyl)-N-cis-2-hydroxycyclobutyl-3-oxo-2-(pyridin-3-yl)-2,3-dihydropyridazine-4-carboxamide] | 261 | > 20000
C[C@H](CO)NC(=O)c1cc(-c2ccc(Cl)cc2)nn(-c2cncc(F)c2)c1=O [Example 81, 6-(4-Chlorophenyl)-2-(5-fluoropyridin-3-yl)-N-[(2R)-1-hydroxypropan-2-yl]-3-oxo-2,3-dihydropyridazine-4-carboxamide] | 106 | > 20000
C[C@@H](CO)NC(=O)c1cc(-c2ccc(Cl)cc2)nn(-c2cncnc2)c1=O [Example 120, 6-(4-Chlorophenyl)-N-[(2S)-1-hydroxypropan-2-yl]-3-oxo-2-(pyrimidin-5-yl)-2,3-dihydropyridazine-4-carboxamide] | 67.9 | > 20000
O=C(N[C@H](CO)CF)c1cc(-c2ccc(Cl)cc2)nn(-c2cnsc2)c1=O [Example 201, 6-(4-Chlorophenyl)-N-[(2R)-1-fluoro-3-hydroxypropan-2-yl]-3-oxo-2-(1,2-thiazol-4-yl)-2,3-dihydropyridazine-4-carboxamide] | 0.823 | > 20000
O=C(N[C@H](CO)C1CC1)c1cc(-c2ccc(C(F)F)cc2)nn(-c2cccnc2)c1=O [Example 150, N-[(1S)-1-Cyclopropyl-2-hydroxyethyl]-6-[4-(difluoromethyl)phenyl]-3-oxo-2-(pyridin-3-yl)-2,3-dihydropyridazine-4-carboxamide] | 19.9 | > 20000
O=C(N[C@H](CO)C1CC1)c1cc(-c2ccc(C(F)(F)F)cc2)nn(-c2cnsc2)c1=O [Example 207, N-[(1S)-1-Cyclopropyl-2-hydroxyethyl]-3-oxo-2-(1,2-thiazol-4-yl)-6-[4-(trifluoromethyl)phenyl]-2,3-dihydropyridazine-4-carboxamide] | 1.21 | > 20000
C[C@@H](CO)NC(=O)c1cc(-c2ccc(Cl)cc2)nn(-c2csc(Cl)c2)c1=O [Example 243, 6-(4-Chlorophenyl)-2-(5-chloro-3-thienyl)-N-[(2S)-1-hydroxypropan-2-yl]-3-oxo-2,3-dihydropyridazine-4-carboxamide] | 11.8 | > 20000
C[C@@H](CO)NC(=O)c1cc(-c2ccc(C(F)F)nc2)nn(-c2cnn(C)c2)c1=O [Example 66, 6-[6-(Difluoromethyl)pyridin-3-yl]-N-[(2S)-1-hydroxypropan-2-yl]-2-(1-methyl-1H-pyrazol-4-yl)-3-oxo-2,3-dihydropyridazine-4-carboxamide] | 259 | > 20000
C[C@H](NC(=O)c1cc(-c2ccc(Cl)cc2)nn(-c2cn[nH]c2)c1=O)C(C)(C)O [Example 276, 6-(4-Chlorophenyl)-N-[(2S)-3-hydroxy-3-methylbutan-2-yl]-3-oxo-2-(1H-pyrazol-4-yl)-2,3-dihydropyridazine-4-carboxamide] | 131 | > 20000
O=C(NC[C@H](O)C(F)(F)F)c1cc(-c2ccc(C(F)(F)F)cc2)nn(-c2cn[nH]c2)c1=O [Example 216, 3-Oxo-2-(1H-pyrazol-4-yl)-N-[(2S)-3,3,3-trifluoro-2-hydroxypropyl]-6-[4-(trifluoromethyl)phenyl]-2,3-dihydropyridazine-4-carboxamide] | 2.38 | > 20000
C[C@H](NC(=O)c1cc(-c2ccc(C(F)(F)F)nc2)nn(-c2cnsc2)c1=O)C(C)(C)O [Example 233, N-[(2S)-3-Hydroxy-3-methylbutan-2-yl]-3-oxo-2-(1,2-thiazol-4-yl)-6-[6-(trifluoromethyl)pyridin-3-yl]-2,3-dihydropyridazine-4-carboxamide] | 8.23 | 17200
Cc1cc(-n2nc(-c3ccc(Cl)cc3)cc(C(=O)NCC(C)(C)O)c2=O)cs1 [Example 246, 6-(4-Chlorophenyl)-N-(2-hydroxy-2-methylpropyl)-2-(5-methyl-3-thienyl)-3-oxo-2,3-dihydropyridazine-4-carboxamide] | 13.2 | > 20000
C[C@@H](NC(=O)c1cc(-c2ccc(Cl)cc2)nn(-c2cccnc2)c1=O)C(C)(C)O [Example 302, 6-(4-Chlorophenyl)-N-[(2R)-3-hydroxy-3-methylbutan-2-yl]-3-oxo-2-(pyridin-3-yl)-2,3-dihydropyridazine-4-carboxamide] | 81.5 | > 20000
CC(NC(=O)c1cc(-c2ccc(Cl)cc2)nn(-c2cccnc2)c1=O)C(O)C(F)(F)F (single isomer, unassigned) [Example 298, 6-(4-Chlorophenyl)-3-oxo-2-(pyridin-3-yl)-N-(4,4,4-trifluoro-3-hydroxybutan-2-yl)-2,3-dihydropyridazine-4-carboxamide] | 3.69 | > 20000
O=C(N[C@@H](CO)C(F)(F)F)c1cc(-c2ccc(Cl)cc2)nn(-c2cccnc2)c1=O [Example 95, (−)-6-(4-Chlorophenyl)-3-oxo-2-(pyridin-3-yl)-N-[(2S)-1,1,1-trifluoro-3-hydroxypropan-2-yl]-2,3-dihydropyridazine-4-carboxamide] | 62.3 | > 20000
O=C(N[C@H](CO)C(F)(F)F)c1cc(-c2ccc(C(F)(F)F)cc2)nn(-c2cn[nH]c2)c1=O [Example 212, 3-Oxo-2-(1H-pyrazol-4-yl)-N-[(2R)-1,1,1-trifluoro-3-hydroxypropan-2-yl]-6-[4-(trifluoromethyl)phenyl]-2,3-dihydropyridazine-4-carboxamide] | 1.69 | > 20000
CC(C)(O)CNC(=O)c1cc(-c2ccc(Cl)cc2)nn(-c2ccnnc2)c1=O [Example 178, 3-(4-Chlorophenyl)-N-(2-hydroxy-2-methylpropyl)-6-oxo-6H-1,4′-bipyridazine-5-carboxamide] | 594 | > 20000
O=C(NC[C@H](O)C(F)(F)F)c1cc(-c2ccc(Cl)cc2)nn(-c2cnn(C(F)F)c2)c1=O [Example 256, 6-(4-Chlorophenyl)-2-[1-(difluoromethyl)-1H-pyrazol-4-yl]-3-oxo-N-[(2S)-3,3,3-trifluoro-2-hydroxypropyl]-2,3-dihydropyridazine-4-carboxamide] | 26 | > 20000
O=C(N[C@@H]1COC[C@@H]1O)c1cc(-c2ccc(C(F)(F)F)cc2)nn(-c2cccnc2)c1=O (racemic) [Example 107, N-[(3RS,4RS)-4-Hydroxytetrahydrofuran-3-yl]-3-oxo-2-(pyridin-3-yl)-6-[4-(trifluoromethyl)phenyl]-2,3-dihydropyridazine-4-carboxamide] | 12.3 | > 20000
CC(C)(O)CNC(=O)c1cc(-c2ccc(CF)cc2)nn(-c2cccnc2)c1=O [Example 286, 6-[4-(Fluoromethyl)phenyl]-N-(2-hydroxy-2-methylpropyl)-3-oxo-2-(pyridin-3-yl)-2,3-dihydropyridazine-4-carboxamide] | 672 | > 20000
Cn1cc(-n2nc(-c3ccc(OC(F)(F)F)cc3)cc(C(=O)N[C@@H]3COC[C@@H]3O)c2=O)cn1 (racemic) [Example 55, N-[(cis)-4-Hydroxytetrahydrofuran-3-yl]-2-(1-methyl-1H-pyrazol-4-yl)-3-oxo-6-[4-(trifluoromethoxy)phenyl]-2,3-dihydropyridazine-4-carboxamide] | 17.9 | > 20000
